Measured values taken from ChEMBL document CHEMBL1127930, “Design, synthesis and biological properties of structurally non-related endotoxin inhibitors” (Bioorg Med Chem Lett, 1994).

Tested on: Escherichia coli
Assay: Compound was evaluated to inhibit the LAL response produced by two endotoxin units of Escherichia coli LPS
Assay type: functional, organism-based

Compound	Concentration
CCCCCCCCCCCCCC[N+](C)(C)C[C@@H]1OC(C)(C)O[C@H]1C[N+](C)(C)CCCCCCCCCCCCCC	75 µg/mL
CCCCCCCCCCCCCC[N+](C)(C)C[C@@H]1OCO[C@H]1C[N+](C)(C)CCCCCCCCCCCCCC	75 µg/mL
